The target of the assay is T1, BACE2 (Rattus norvegicus, UniProt Q6IE75).
T1 construct: endogenous cellular BACE2 in the Ins1e rat cell line; endogenous in cells; host or cells: INS-TMEM27 (INS1e-derived rat cell line with doxycycline-inducible full-length human TMEM27)
T1 sequence (Q6IE75 63-514): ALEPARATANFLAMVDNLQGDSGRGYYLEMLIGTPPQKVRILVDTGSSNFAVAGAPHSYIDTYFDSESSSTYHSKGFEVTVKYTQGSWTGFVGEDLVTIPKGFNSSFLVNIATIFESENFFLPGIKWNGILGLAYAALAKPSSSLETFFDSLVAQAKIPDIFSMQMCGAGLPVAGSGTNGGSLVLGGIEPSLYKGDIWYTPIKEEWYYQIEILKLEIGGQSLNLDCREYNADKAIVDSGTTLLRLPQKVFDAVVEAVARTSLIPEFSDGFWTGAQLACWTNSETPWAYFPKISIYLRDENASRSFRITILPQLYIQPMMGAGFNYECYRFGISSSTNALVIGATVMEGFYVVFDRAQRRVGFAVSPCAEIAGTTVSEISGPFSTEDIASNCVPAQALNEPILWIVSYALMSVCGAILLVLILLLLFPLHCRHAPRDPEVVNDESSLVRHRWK
The experiment in a line: Assay for BACE inhibition by measuring cellular TMEM27 cleavage (INS-TMEM27 cells, ELISA). Type of assay: cell-based. The following applies: INS-TMEM27 (INS1e-derived) cells; shed TMEM27 by ELISA. From the text:
Assay for BACE Inhibition by Measuring Cellular TMEM27 Cleavage:
The assay uses the principle of inhibition of human TMEM27 cleavage by endogenous cellular BACE2 in the Ins1e rat cell line and shedding from the cell surface into the culture medium, followed by detection in an ELISA assay. Inhibition of BACE2 prevents the cleavage and shedding in a dose-dependent manner.
The stable cell line “INS-TMEM27” represents an INS1e-derived cell line with inducible expression (using the TetOn system) of full-length hTMEM27 in a doxycycline-dependent manner. The cells are cultured throughout the experiment in RPMI1640+Glutamax (Invitrogen) Penicillin/Streptomycin, 10% Fetal bovine serum, […], […], 100 micrograms/ml G418 and 100 microgram/ml hygromycin and are grown inadherent culture at 37° C. in a standard CO2 cell culture incubator.
INS-TMEM27 cells are seeded in 96-well plates. After 2 days in culture, BACE2 inhibitor is added in a range of concentrations as required by the assay and after a further two hours, doxycycline is added to a final concentration of 500 ng/ml. The cells are incubated for a further 46 hours and the supernatant harvested for detection of shed TMEM27.
An ELISA assay (using a pair of mouse anti-human-TMEM27 antibodies, raised against the extracellular domain of TMEM27) is used for detection of TMEM27 in the culture medium. An EC50 for BACE2 inhibition is calculated using the ELISA readout for each inhibitor concentration with standard curve-fitting software such as XLFit for the Excel spreadsheet program.
For orientation: ELISA stands for enzyme-linked immunosorbent assay.

Each structure is given as a SMILES string. pIC50: −log10 of the molar value.

In the case of `CC1(c2cccc(-c3cc(Cl)cc(Cl)c3)c2)COCC(N)=N1` (stereo not shown) [Example 32, 5-(3′,5′-Dichloro-biphenyl-3-yl)-5-methyl-5,6-dihydro-2H-[1,4]oxazin-3-ylamine], the pIC50 (in general, the negative decadic logarithm of the IC50, by convention in mol/L) was 6.33.
